Results as given in US12186307B2, “Methods of treating epilepsy” (YALE UNIVERSITY, priority 2019, dated 2025).
Where “and” joins values, the source holds several entries; their conditions need not be identical. Identical values can stand only once. Entries after “also recorded” stand apart in the source; their conditions may differ.

Legend:
phospho-S6 = assay: Phospho-S6 (read-out of mTORC1 activity) immunostaining / immunoblot in mouse cortex; type: in vivo, CD-1 mice
Procedure: (§1) Mice: Mice were transcardially perfused with PBS followed by 4% paraformaldehyde. Brains were then dissected and post-fixed in 4% paraformaldehyde for 24 hours before being transferred to a solution of 3% agarose solution in PBS. These were then sectioned coronally on a vibratome at a thickness of 50 μm. For immunofluorescence, free-floating sections were incubated for 1 hour in a blocking solution (2% bovine serum albumin and 0.1% Triton-X in PBS) at room temperature and then incubated with primary antibodies (Table 5) overnight at 4° C. Sections were washed with PBS+0.05% Tween 20 and then placed in blocking solution containing secondary antibodies for 1 hour at room temperature. All images were taken using an FV1000 confocal microscope (Olympus).
(§2) Quantification of the number of layer 2/3 neurons in the anterior cingulate cortex, the boundary between layer 2/3 and layer 5 was determined using ER81 staining, which labels layer 5 (FIGS. 14A-14B)Soma size was quantified by outlining the soma of GFP+ cells and measuring the area using ImageJ. Intensity of phospho-S6 and FLNA in sections was quantified by outlining somas of cells and measuring the mean gray value. Then, the values in electroporated cells (in mice) or SMI-311-positive cells (in humans) were normalized to those in non-electroporated cells or unstained cells surrounding electroporated cells to control for variability of staining between sections.
Human and mouse samples were lysed in RIPA buffer (Thermo fisher, #89900) with protease/phosphatase inhibitor cocktail (Cell Signaling Technology, #5872), 5 mM EDTA, and 20 units/ml DNase I (Roche). All lysates were run on Tris-glycine gels (Bio-Rad, #456-1086 for mouse samples and #456-1046 for human samples). Proteins were transferred to PVDF and blocked in 5% milk and incubated with primary antibodies (concentrations of primary antibody are listed in Table 5). HRP-conjugated anti-rabbit or anti-mouse were used as secondary antibodies. Phosphorylated and total proteins were blotted on the same membrane after stripping (Thermo fisher, #21059). […]

native FLNA = native FLNA (Homo sapiens, UniProt P21333); conditions: reported; cited from earlier work
native FLNA, sequence (P21333 whole entry, species assumed): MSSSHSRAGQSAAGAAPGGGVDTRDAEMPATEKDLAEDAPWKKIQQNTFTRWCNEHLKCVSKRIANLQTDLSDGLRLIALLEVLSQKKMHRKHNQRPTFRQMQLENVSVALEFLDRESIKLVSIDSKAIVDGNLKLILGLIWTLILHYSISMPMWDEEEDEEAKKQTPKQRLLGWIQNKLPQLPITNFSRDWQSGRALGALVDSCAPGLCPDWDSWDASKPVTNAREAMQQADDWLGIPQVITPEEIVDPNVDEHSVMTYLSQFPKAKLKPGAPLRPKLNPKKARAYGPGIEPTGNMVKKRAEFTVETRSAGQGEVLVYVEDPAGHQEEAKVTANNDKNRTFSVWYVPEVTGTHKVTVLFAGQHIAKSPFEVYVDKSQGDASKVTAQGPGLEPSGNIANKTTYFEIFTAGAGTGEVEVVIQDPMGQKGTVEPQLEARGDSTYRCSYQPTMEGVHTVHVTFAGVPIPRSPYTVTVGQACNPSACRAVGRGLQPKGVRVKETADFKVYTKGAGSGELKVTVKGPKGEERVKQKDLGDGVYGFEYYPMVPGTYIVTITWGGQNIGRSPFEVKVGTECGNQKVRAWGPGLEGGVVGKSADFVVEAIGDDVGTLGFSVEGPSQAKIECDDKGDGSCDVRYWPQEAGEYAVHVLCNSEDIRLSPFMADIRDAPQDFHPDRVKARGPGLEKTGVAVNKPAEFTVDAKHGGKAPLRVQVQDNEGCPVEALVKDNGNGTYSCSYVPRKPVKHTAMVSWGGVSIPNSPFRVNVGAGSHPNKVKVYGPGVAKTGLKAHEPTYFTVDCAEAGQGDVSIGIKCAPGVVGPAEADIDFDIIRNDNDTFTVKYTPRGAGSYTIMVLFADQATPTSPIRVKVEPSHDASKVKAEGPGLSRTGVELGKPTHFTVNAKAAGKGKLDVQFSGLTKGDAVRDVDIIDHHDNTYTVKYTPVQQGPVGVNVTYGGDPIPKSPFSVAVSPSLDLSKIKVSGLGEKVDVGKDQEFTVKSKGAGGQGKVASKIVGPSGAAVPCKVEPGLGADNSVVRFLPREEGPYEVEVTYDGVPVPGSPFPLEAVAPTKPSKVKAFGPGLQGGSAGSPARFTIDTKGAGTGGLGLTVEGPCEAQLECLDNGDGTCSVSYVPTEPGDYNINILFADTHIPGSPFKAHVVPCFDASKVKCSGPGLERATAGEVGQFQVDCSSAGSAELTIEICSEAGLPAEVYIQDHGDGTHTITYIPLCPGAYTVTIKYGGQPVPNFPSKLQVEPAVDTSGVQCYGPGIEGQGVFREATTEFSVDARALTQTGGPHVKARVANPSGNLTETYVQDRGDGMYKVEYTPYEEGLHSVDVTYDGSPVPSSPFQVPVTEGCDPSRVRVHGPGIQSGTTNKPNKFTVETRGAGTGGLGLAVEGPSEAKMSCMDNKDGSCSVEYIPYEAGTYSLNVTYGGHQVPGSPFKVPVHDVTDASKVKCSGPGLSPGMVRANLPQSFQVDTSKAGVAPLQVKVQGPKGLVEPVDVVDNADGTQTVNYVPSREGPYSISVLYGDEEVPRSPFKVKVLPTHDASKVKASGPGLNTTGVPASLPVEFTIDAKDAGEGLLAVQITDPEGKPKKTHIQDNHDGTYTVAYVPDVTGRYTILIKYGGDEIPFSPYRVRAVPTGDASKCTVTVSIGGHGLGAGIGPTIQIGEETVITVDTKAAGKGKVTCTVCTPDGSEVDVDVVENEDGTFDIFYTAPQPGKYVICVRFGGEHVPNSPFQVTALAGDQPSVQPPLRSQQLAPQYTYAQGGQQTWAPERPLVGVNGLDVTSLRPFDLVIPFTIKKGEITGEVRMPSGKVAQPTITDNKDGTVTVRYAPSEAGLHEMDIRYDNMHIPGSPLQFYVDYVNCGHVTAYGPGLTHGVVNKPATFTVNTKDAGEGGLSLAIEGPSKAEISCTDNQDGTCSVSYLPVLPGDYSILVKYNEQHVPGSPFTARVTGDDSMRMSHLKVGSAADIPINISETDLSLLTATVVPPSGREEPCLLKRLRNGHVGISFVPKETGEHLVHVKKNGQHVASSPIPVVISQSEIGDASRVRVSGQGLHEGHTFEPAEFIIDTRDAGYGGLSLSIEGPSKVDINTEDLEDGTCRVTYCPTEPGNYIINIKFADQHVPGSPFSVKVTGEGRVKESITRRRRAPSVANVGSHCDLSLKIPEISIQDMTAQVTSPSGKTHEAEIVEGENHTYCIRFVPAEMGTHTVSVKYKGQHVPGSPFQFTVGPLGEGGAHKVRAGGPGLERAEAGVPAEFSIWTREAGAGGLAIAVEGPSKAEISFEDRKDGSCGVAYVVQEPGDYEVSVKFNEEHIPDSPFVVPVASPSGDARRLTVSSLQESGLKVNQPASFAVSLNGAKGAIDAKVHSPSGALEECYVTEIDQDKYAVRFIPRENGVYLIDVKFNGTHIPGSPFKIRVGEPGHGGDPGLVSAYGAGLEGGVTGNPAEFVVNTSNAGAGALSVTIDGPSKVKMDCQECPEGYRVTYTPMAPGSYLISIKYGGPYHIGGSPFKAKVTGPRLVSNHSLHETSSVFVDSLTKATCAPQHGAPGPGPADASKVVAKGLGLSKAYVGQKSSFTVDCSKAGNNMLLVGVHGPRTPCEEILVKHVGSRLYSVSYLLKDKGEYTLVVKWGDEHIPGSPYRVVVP

[1] = molecular target: aberrant FLNA in Alzheimer's disease (Homo sapiens, UniProt P21333); conditions: reported; cited from earlier work
aberrant FLNA in Alzheimer's disease, sequence (P21333 whole entry): as the sequence (P21333 whole entry, species assumed) above

Rheb^CA-expressing mice = assay: Video-EEG recording of seizures in Rheb^CA-expressing mice; type: in vivo, CD-1 mice
Procedure: (§3) All experiments were performed on CD-1 mice (Charles River) of either sex.
(§4) Each DNA plasmid was diluted in sterile PBS (pH 7.4). Timed pregnant mice (embryonic day, E15) were anesthetized with isoflurane. After exposing the uterine horns, ˜1.5 μl of DNA solution, containing 0.1% fast green added as an injection tracer, was injected into the lateral ventricle via a pulled glass capillary. PBS-soaked tweezer-type electrodes (model 520, BTX) were then positioned on the head of the fetuses across the uterine wall and 6 square-pulses at […] and 50 ms duration every 950 ms were applied using a pulse generator (ECM830, BTX). At birth, mice were prescreened for successful electroporation by detecting the expression of fluorescent protein markers on a fluorescence-enabled stereo microscope (SZX16, Olympus).
Mice were anesthetized with isoflurane and positioned on a stereotaxic frame using ear bars. A rostro-caudal midline incision was made in the skin to expose the skull surface. Four pilot holes (two bilateral holes 1 mm anterior to bregma and two bilateral holes 5 mm posterior to bregma, each 1.5 mm lateral to sagittal suture), was tapped through the skull to dura using a microdrill (Roboz Surgical Instrument, #RS6300). […] Silver conductive paint (Electron Microscopy Science) was applied around the screw threads to ensure a solid connection with the headmount. The entire implant was insulated using dental acrylic. Mice were allowed to recover in their home cage for seven days before video-EEG monitoring.
Mice were housed in individual recording chambers in a light-, temperature- and humidity-controlled room during video-EEG monitoring. Mice were freely moving inside the chambers and had ad libitum access to food and water. Synchronous video-EEG recording was acquired using a three-channel EEG tethered system (Pinnacle Technology, cat. no. 8200-K1-iSE3) and Sirenia Acquisition software (Pinnacle Technology). Mice were continuously recorded 24 hours/day for 5-6 consecutive days or 31-45 days.
Seizure frequency and duration were analyzed using Sirenia Seizure Basic software (Pinnacle Technology). All analyses were performed blinded to experimental groups by at least two investigators. The entire EEG traces were manually reviewed for the occurrence of seizures, defined as a sudden onset of high amplitude activity with a characteristic pattern of progressive frequency and amplitude changes over the course of the event lasting≥10 sec. Seizure onset was defined by high amplitude firing>2× baseline and seizure termination was defined by a return to baseline activity. Video data were inspected for behavioral correlates including myoclonic jerks, tonic-clonic activities, convulsions, and loss of postural control (rearing and falling) and were used as secondary verification of seizures. For each individual animal, mean number of seizures per day was obtained by dividing the total number of seizures by the total number of recording hours and multiplied by 24.
Saline was used as vehicle treatment.

[2] = system: Rheb^CA-expressing neurons; assay: Cell placement, soma size and dendrite (Sholl) analysis in Rheb^CA mouse model of FCM; type: in vivo, CD-1 mice
Procedure: as §3
as §4, with “Olympus). Morphology and seizure data in different conditions (Flna vs Luciferase shRNA or vehicle vs PTI-125 treatment) were compared between littermate mice. For most experiments, mice received unilateral electroporation, except for experiments in FIG. 4F (P8-P65 PTI-125 treatment on seizures) for which mice received bilateral electroporation.” for “Olympus).”
as §1, §2
To analyze neuronal morphology and, in particular dendritic trees, only a few neurons per section were labeled using a Cre-based strategy as previously reported. More specifically, an inducible DsRed2 vector (pCAG-LoxP-stop-LoxP-DsRed2, pCALNL-DsRed2) combined with a Cre vector (pCAG-Cre) was used at very low concentration (1 ng/μl). The Cre plasmid led to DsRed expression in only 3-5 neurons per slice allowing to cleanly analyze the dendritic morphology of individual neurons (FIGS. 15A-15C)Images of DsRed-expressing basal dendrites were acquired in coronal sections using a Fluoview 1000 confocal microscope with a 20× objective. Basal dendrites were traced with simple neurite tracer software (FIJI and Neuronstudio). Sholl analyses were carried out using the number of intersections in 10-μm-increment concentric circles as a measure of morphological complexity. Z stacks from three different square fields of view were taken from three different sections. Analysis was performed blindly with more than four animals and more than 20 cells per condition (see Table 3 for actual n number).
(§5) PTI-125 was dissolved in saline at a concentration of 2.4 mg/ml. Mice received two intraperitoneal injections of 6 or 12 mg/kg PTI-125 every day. Saline was used as vehicle treatment.

[3] = Body weight during treatment of Rheb^CA mice; type: in vivo, CD-1 mice; conditions: 12 mg/kg i.p. twice daily, P8-P60
Procedure: as §3, §5

[4] = system: seizures in individuals with TSC or FCDII; conditions: clinical trial, cited from earlier work
Neuro2a cells = assay: S6 phosphorylation immunoblot in transfected Neuro2a cells; type: cell-based; conditions: in vitro, Neuro2a cells transfected with shRNA
Procedure: Neuro2a cells were grown at 37° C. with 5% CO2 in a complete media consisting of high glucose DMEM (Gibco, #11965-092), 5% heat-inactivated fetal bovine serum (Gibco, #16140071), and 1% penicillin-streptomycin. Cells were plated in 12 well culture plates (Corning, #0720082) and transfected when they reached ˜70% confluence. Transfection was done using PolyJet transfection reagent (Signagen, SL100688) according to the manufacturer's instructions. Cells were lysed 72 hours after transfection for all experiments.
Human and mouse samples were lysed in RIPA buffer (Thermo fisher, #89900) with protease/phosphatase inhibitor cocktail (Cell Signaling Technology, #5872), 5 mM EDTA, and 20 units/ml DNase I (Roche). All lysates were run on Tris-glycine gels (Bio-Rad, #456-1086 for mouse samples and #456-1046 for human samples). Proteins were transferred to PVDF and blocked in 5% milk and incubated with primary antibodies (concentrations of primary antibody are listed in Table 5). HRP-conjugated anti-rabbit or anti-mouse were used as secondary antibodies. Phosphorylated and total proteins were blotted on the same membrane after stripping (Thermo fisher, #21059). All density measurements were performed using NIH Image J software. In the case where cross-blot normalization was required a reference sample was loaded on each gel to account for inter-gel variability (FIGS. 11A-11B).

[5] = 6 mg/kg i.p. twice daily, P8 to P28
[6] = 12 mg/kg i.p. twice daily, P8 to P28
[7] = treatment after seizure onset, P29 to P54

Molecule: CN1CCC2(CC1)NCC(=O)N2Cc1ccccc1 [PTI-125]
- phospho-S6 expression in the cortex (phospho-S6; nonelectroporated mice, 12 mg/kg): not affected
- phospho-S6 intensity in brain sections (phospho-S6; recorded Rheb^CA mice, 12 mg/kg P8-P65): not affected
- affinity for native FLNA (native FLNA): picomolar
- affinity for aberrant FLNA in Alzheimer's disease [1]: femtomolar
- seizure frequency (Rheb^CA-expressing mice; 12 mg/kg i.p. twice daily P8-P65, recorded P61 to P66, vehicle 5.1): 1.4 seizures/day
- Number of mice without/with seizures per condition (Rheb^CA-expressing mice; FIG. 6A, all treatments combined, vehicle 3/29): 11/32
- overall reduction in seizure frequency compared to vehicle-treated littermates (Rheb^CA-expressing mice; all PTI-125 treatments combined (n=32 vs n=27)): 66%
- seizure-free mice (Rheb^CA-expressing mice; all PTI-125 treatments combined, vehicle 11%): 35%
- lowering of seizure frequency compared to vehicle-treated mice (Rheb^CA-expressing mice; treatment P29 to P54, recorded P50-P54): 69% and 67%
- seizure frequency (Rheb^CA-expressing mice; treatment P29 to P54, recorded P50-P54, vehicle 2.7): 0.84 seizures/day
- reduction of seizure frequency (Rheb^CA-expressing mice; treatment prior to seizure onset, 12 mg/kg P8-P65, vs vehicle): 73%
- reduction in seizure frequency prior to vs after treatment in the same mice (Rheb^CA-expressing mice; young adult mice (P61-P106), 33-day treatment): 60%
- change of seizure frequency over time (Rheb^CA-expressing mice; young adult mice switched from vehicle to PTI-125 after 12 days of recordings, 20-day treatment): did not have the increase in seizure frequency observed in the vehicle group
- mean seizure frequency (Rheb^CA-expressing mice; young adult mice, after 33-day treatment, 3.9 prior to treatment): 1.6 seizures/day
- dendritic dysmorphogenesis [2, 5]: partially rescued
- neuronal soma size [2, 5]: partially rescued
- dendritic dysmorphogenesis [2, 6]: partially rescued
- neuronal soma size [2, 6]: partially rescued
- dendritic dysmorphogenesis [2, 7]: partially, but significantly, rescued
- increased soma size [2, 7]: partially, but significantly, rescued
- cell misplacement (neuronal placement) ([2]; treatment starting at P8, 12 mg/kg, brain sections from recorded mice): not affected; also recorded: did not rescue
- body weight [3]: did not affect

Molecule: CO[C@H]1C[C@@H]2CC[C@@H](C)[C@@](O)(O2)C(=O)C(=O)N2CCCC[C@H]2C(=O)O[C@H]([C@H](C)C[C@@H]2CC[C@@H](OCCO)[C@H](OC)C2)CC(=O)[C@H](C)/C=C(\C)[C@@H](O)[C@@H](OC)C(=O)[C@H](C)C[C@H](C)/C=C/C=C/C=C/1C [everolimus]
- patients with reduced seizure frequency ([4]; highest dose): 40%
- patients who saw no improvements [4]: 60%
- side-effects [4]: had side-effects

Molecule: Flna shRNA: short hairpin RNA against Flna, expressed from plasmid; sequence 5′ CCTATGAAGCTGGAACCTATA 3′ (expressed from plasmid pCGLH)
- increased phospho-S6 intensity in vivo (phospho-S6; GFP+ Rheb^CA-expressing neurons in EEG-recorded mice): did not prevent
- Rheb^CA-induced increased S6 phosphorylation (Neuro2a cells): did not reduce
- death of mice (Rheb^CA-expressing mice; out of 10 mice, 4 out of 16 died in the control group): no mice died
- lowering of seizure frequency compared to luciferase shRNA (Rheb^CA-expressing mice; video-EEG for 5 days starting at P61): 83%
- mean seizure frequency (Rheb^CA-expressing mice; video-EEG for 5 days starting at P61, 12.6 with luciferase shRNA): 2.2 seizures/day
- total dendritic length ([2]; Rheb^CA neurons co-expressing shRNA by E15 IUE, P28, 194% with control shRNA): 130 % of control
- soma size ([2]; Rheb^CA neurons co-expressing shRNA by E15 IUE, P28, 372% with control shRNA): 250 % of control
- misplaced cells (neuronal misplacement) ([2]; Rheb^CA neurons co-expressing shRNA by E15 IUE, analysed at P28, 50% with control shRNA, 2% in control): 23%
